In brackets after ≈: the same amount, converted by molar mass. Where a name gives a salt, the structure may show the parent alone.
Columns and labels:
mPTP = mPTP activity assay in isolated rat liver mitochondria (Ca2+ retention, Fluo5N, FLIPR); format: biochemical; conditions: isolated rat liver mitochondria; average value from multiple experiments (n ≥ 2)
Excerpt: Pharmacological inhibition or modulation of the mPTP can be measured in well characterised ‘Ca^2+ retention’ assays performed in isolated mitochondria. In vitro, isolated mitochondria rapidly sequester exogenous Ca^2+ until the intramitochondrial Ca^2+ concentration reaches the threshold for mPTP activation. Once the pore is activated, mitochondrial integrity is compromised and the stored Ca^2+ is released. The distribution of Ca^2+ between extra- and intra-mitochondrial compartments can be measured in real time with the use of membrane-impermeant Ca^2+ sensitive fluorescent dyes. Depending on the configuration of the assay, inhibition or modulation of the mPTP either delays the opening of the pore or increases the concentration of Ca^2+ required to induce mPTP opening.
mPTP activity was measured in mitochondria freshly isolated from female Sprague Dawley (250 to 300 gram) rat livers using the following method. Cervical dislocation was performed on the rat. The liver was then perfused in-situ with ˜40 ml cold Dulbecco's Phosphate Buffered Saline (DPBS) prior to dissection and transferred into 30 ml Isolation Buffer (250 mM Sucrose, 10 mM KCl, 1 mM EGTA, 1 mM EDTA, 25 mM HEPES, adjusted to pH 7.5 with 1 M NaOH). Each lobe of the liver was then removed from the buffer, minced using tweezers and a scalpel into ˜5 mm pieces then transferred into a 50 ml Potterton dounce homogenization tube on ice containing 30 ml ice-cold centrifugation buffer (300 mM Trehalose, 25 mM HEPES, 1 mM EGTA, 1 mM EDTA, 10 mM KCl, adjusted to pH 7.5 with 1 M NaOH and supplemented with 0.1% bovine serum albumin (BSA) and complete protease inhibitor cocktail (one tablet of inhibitor per 50 mls of buffer). Homogenisation was carried out using a teflon pestle at 1800 rpm. The slurry was centrifuged at 800 g for 10 min at 4° C., then the supernatant centrifuged at 10,000 g for 10 min. The pellet was washed once with FLIPR assay buffer (75 mM Mannitol, 25 mM Sucrose, 5 mM Potassium Phosphate Monobasic, 20 mM Tris base, 100 mM KCl, 0.1% BSA adjusted to pH 7.4 with 5 M HCl) centrifuged again, then resuspended in FLIPR assay buffer to a concentration of 8.8 mg/ml protein.
Test compounds (10 mM stock in DMSO) were serially diluted in DMSO in half log steps to generate 10 test concentrations (final concentrations in assay 30 μM to 1 nM). An intermediate dilution of 5 μl DMSO samples into 247 μl FLIPR assay buffer was carried out prior to transfer of 5 μl into duplicate wells of a 384 well polypropylene assay plate. Control wells were 0.5% (v/v) DMSO and 5 μM cyclosporin A.
A stock mitochondria/Fluo5N assay solution was prepared in 5.6 ml FLIPR assay buffer (at RT) supplemented with succinate disodium salt (10 mM), rotenone (1 μM), Fluo5N pentapotassium salt (2 μM) and 1 ml mitochondria suspension, then transferred (15 μl) into the assay plate containing test compounds and incubated for 10 min at RT. Assay plates were then transferred to a FLIPR Tetra plate reader (Molecular Devices). Dye fluorescence was then measured every 3 sec for a total of 10 min. After 12 sec, a 2.5 μl bolus of CaCl2 (75 μM) was added from a source plate containing 675 μM CaCl2 in FLIPR assay buffer. IC50 values for test compounds were calculated using the fluorescence value collected at the 10 min timepoint with % inhibition calculated using the DMSO control and cyclosporin A values as […] respectively.

[1] = Hepatocyte clearance assay, rat; format: in vitro ADME; conditions: cryopreserved primary rat hepatocytes, average value from two experiments, read-out: Rat heps intrinsic clearance (CLint)
Procedure: In vitro clearance studies were performed in primary rat and human hepatocytes (BioIVT). Vials of cryopreserved rat or human hepatocytes were thawed in a 37° C. water bath for 2 min. Cells were transferred into thawing medium (Williams' Medium E containing 30% Percoll, 1× GlutaMAX-1, 15 mM HEPES, 5% fetal bovine serum (FBS), 4 μg/ml insulin, 1 μM dexamethasone), centrifuged at 100 g for 10 min then resuspended in culture medium (Leibovitz's L-15 Medium) at a concentration of 0.5×10^6 viable cells/mL (number of viable cells assessed using AO/PI staining). Hepatocytes (198 μL) were transferred into wells of a 96-well non-coated plate and placed in a 37° C. incubator for 10 min. Test compound solutions were prepared from 10 mM stocks in DMSO, diluted to 100 μM in 50% (v/v in water) acetonitrile. Test compound samples (2 μl) were added to each well of hepatocytes and incubated at 37° C. Samples (25 μl) were collected at t=0, 15, 30, […] and 120 min, mixed with 6 volumes (150 μl) of acetonitrile containing internal standard (100 nM alprazolam, 200 nM caffeine and 100 nM tolbutamide), vortexed for 5 min and centrifuged for 45 min at 3220 g. An aliquot of supernatant (100 μL) was diluted with 100 μL ultra-pure water, and the mixture was used for LC/MS/MS analysis. All incubations were performed in duplicate. Peak areas were determined from extracted ion chromatograms. The slope value, k, was determined by linear regression of the natural logarithm of the remaining percentage of the parent drug vs. incubation time curve. The in vitro half-life (in vitro t1/2) was determined from the slope value: in vitro t1/2=0.693/k. Conversion of the in vitro t1/2 (in min) into the in vitro intrinsic clearance (in vitro CLint, in μL/min/1×10^6 cells) was done using the following equation (mean of duplicate determinations): • in vitro CLint=kV/N • V=incubation volume (0.2 mL) • N=number of hepatocytes per well (0.1×10^6 cells). Microsomal Clearance Assay

PBS solubility = format: physicochemical; conditions: aqueous buffer, kinetic from dmso stock; PBS pH 7.4, 2 hr at 25° C.
Procedure: Test compounds were prepared as 10 mM stocks in DMSO and 15 μl samples transferred in duplicate into 1.5 mL glass flat bottom vials (BioTech Solutions). Fasted state simulated intestinal fluid (FaSSIF) or PBS (pH 7.4) was added to each vial to final volume of 500 μl. One PTFE encapsulated stir stick (V&P Scientific) was placed in each vial before sealing with PTFE/SIL plugs (BioTech Solutions). Vials were shaken at 1100 rpm for 2 hr at 25° C. Samples were then filtered through MultiScreen Solvinert filter plates (Millipore) via vacuum filtration. Aliquots of filtrate (5 μl) plus 5 μl DMSO were diluted in 490 μl 50% acetonitrile in water containing internal standard. The filtrate was analysed and quantified against a standard of known concentration using LC-MS/MS. Solubility values of the test compound and control compound were calculated as follows: [Sample]=(Area ratiosample*INJ VOL STD*DFsample*[STD])/(Area ratio STD*INJ VOLsample).

SMILES	mPTP Rat liver pIC50* (mPTP)	hepatocyte CLint at 1 µM [1] [µL/min/1e6 cells]	solubility at 2 h (PBS solubility) [µM]
Cc1cccc(NC(=O)/C=C/c2ccc3cn[nH]c3c2)c1 [Example 21, (E)-3-(1H-indazol-6-yl)-N-(m-tolyl)acrylamide]	6.5	–	–
O=C(/C=C/c1ccc2cn[nH]c2c1)Nc1cccc2cnn(Cc3ccccc3)c12 [Example 19, (E)-N-(1-benzyl-1H-indazol-7-yl)-3-(1H-indazol-6-yl)acrylamide]	7.6	179	0.08 (≈ 0.0315 µg/mL)
O=C(/C=C/c1ccc2cn[nH]c2c1)Nc1ccccc1COC1CN(CCF)C1 [Example 30, (E)-N-(2-(((1-(2-fluoroethyl)azetidin-3-yl)oxy)methyl)phenyl)-3-(1H-indazol-6-yl)acrylamide Hydrochloride]	5.8	–	–
O=C(/C=C/c1cc2[nH]ncc2cc1F)NC1CCc2ccccc21 (stereo not shown) [Example 10, (E)-N-(2,3-dihydro-1H-inden-1-yl)-3-(5-fluoro-1H-indazol-6-yl)acrylamide]	7.6	60	–
O=C(/C=C/c1ccc2cn[nH]c2c1)Nc1ccccc1COC1CCC1 [Example 18, (E)-N-(2-(cyclobutoxymethyl)phenyl)-3-(1H-indazol-6-yl)acrylamide]	6.7	–	–
C[C@@H]1CCCC[C@H]1NC(=O)/C=C/c1ccc2cn[nH]c2c1 (single isomer, unassigned) [Example 4a]	6.5	–	–
C[C@@H]1CCCC[C@H]1NC(=O)/C=C/c1ccc2cn[nH]c2c1 (single isomer, unassigned) [Example 4b]	6.3	–	–
O=C(/C=C/c1cc2[nH]ncc2cc1Cl)NC1CCc2ccccc21 (stereo not shown) [Example 12, (E)-3-(5-chloro-1H-indazol-6-yl)-N-(2,3-dihydro-1H-inden-1-yl)acrylamide]	6.0	–	–
O=C(/C=C/c1ccc2cn[nH]c2c1)Nc1ccccc1OCc1ccccc1 [Example 16, (E)-N-(2-(benzyloxy)phenyl)-3-(1H-indazol-6-yl)acrylamide]	6.0	–	–
Cn1ncc2cccc(NC(=O)/C=C/c3ccc4cn[nH]c4c3)c21 [Example 20, (E)-3-(1H-indazol-6-yl)-N-(1-methyl-1H-indazol-7-yl)acrylamide]	7.5	10	1.3 (≈ 0.413 µg/mL)
CC1COc2ccccc2C1NC(=O)/C=C/c1ccc2cn[nH]c2c1 (stereo not shown) [Example 15, (E)-3-(1H-indazol-6-yl)-N-(3-methylchroman-4-yl)acrylamide]	6.9	20	5.9 (≈ 1.97 µg/mL)
C#CCOCc1ccccc1NC(=O)/C=C/c1ccc2cn[nH]c2c1 [Example 40, (E)-3-(1H-indazol-6-yl)-N-(2-((prop-2-yn-1-yloxy)methyl)phenyl)acrylamide]	7.1	–	–
CC1Cc2ccccc2C1NC(=O)/C=C/c1ccc2cn[nH]c2c1 (stereo not shown) [Example 14, (E)-3-(1H-indazol-6-yl)-N-(2-methyl-2,3-dihydro-1H-inden-1-yl)acrylamide]	7.3	–	–
O=C(/C=C/c1ccc2cn[nH]c2c1)Nc1ccccc1COc1ccccc1 [Example 17, (E)-3-(1H-indazol-6-yl)-N-(2-(phenoxymethyl)phenyl)acrylamide]	6.9	–	–
C[C@@H]1Cc2ccccc2[C@H]1NC(=O)/C=C/c1ccc2cn[nH]c2c1 (single isomer, unassigned) [Example 14d]	6.2	–	–

Next, values leading:

mPTP Rat liver pIC50* (mPTP)	hepatocyte CLint at 1 µM [1] [µL/min/1e6 cells]	solubility at 2 h (PBS solubility) [µM]	SMILES
5.8	–	–	CC1CC(NC(=O)/C=C/c2ccc3cn[nH]c3c2)c2ccccc21 (stereo not shown) [Example 39, (E)-3-(1H-indazol-6-yl)-N-(3-methyl-2,3-dihydro-1H-inden-1-yl)acrylamide]
7.0	–	–	Cc1cccc(F)c1NC(=O)/C=C/c1ccc2cn[nH]c2c1 [Example 33, (E)-N-(2-fluoro-6-methylphenyl)-3-(1H-indazol-6-yl)acrylamide]
5.0	–	–	Cc1cccc2c1C(NC(=O)/C=C/c1ccc3cn[nH]c3c1)CC2 (stereo not shown) [Example 38, (E)-3-(1H-indazol-6-yl)-N-(7-methyl-2,3-dihydro-1H-inden-1-yl)acrylamide]
6.2	–	–	O=C(/C=C/c1ccc2cn[nH]c2c1)N[C@@H]1C[C@H](F)c2ccccc21 (single isomer, unassigned) [Example 26]
6.8	–	–	O=C(/C=C/c1ccc2cn[nH]c2c1)Nc1ccccc1CO [Example 27, (E)-N-(2-(hydroxymethyl)phenyl)-3-(1H-indazol-6-yl)acrylamide]
5.9	–	–	O=C(/C=C/c1ccc2cn[nH]c2c1)Nc1cccc(F)c1 [Example 23, (E)-N-(3-fluorophenyl)-3-(1H-indazol-6-yl)acrylamide]
6.4	–	–	O=C(/C=C/c1ccc2cn[nH]c2c1)Nc1cccc(Cl)c1 [Example 22, (E)-N-(3-chlorophenyl)-3-(1H-indazol-6-yl)acrylamide]
6.6	–	–	O=C(/C=C/c1ccc2cn[nH]c2c1)N[C@@H]1C[C@@H](F)c2ccccc21 (single isomer, unassigned) [Example 25]
5.7	–	–	O=C(/C=C/c1cc2[nH]ncc2cn1)NC1CCc2ccccc21 (stereo not shown) [Example 35, (E)-N-(2,3-dihydro-1H-inden-1-yl)-3-(1H-pyrazolo[4,3-c]pyridin-6-yl)acrylamide]

From patent publication US12497359B2, “Acrylamide derivatives” (NRG Therapeutics Ltd, priority 2020, dated 2025)
